Patent publication US7691985B2, “Skeletal-targeted radiation to treat bone-associated pathologies” (priority 1999, dated 2010)

Legend:
Assay type in all cases: in vivo, human
[1] = Phase II multicenter dosimetry study of ^166Ho-DOTMP: safety, biodistribution, pharmacokinetics (Example 9)
Procedure: A 12-patient, Phase II multicenter study was performed to further evaluate the safety, biodistribution and pharmacokinetics of ^166Ho-DOTMP. Each patient was to receive two 30 mCi tracer doses of ^166Ho-DOTMP followed, in eligible patients (those with adequate skeletal uptake parameters), by a therapy dose calculated to deliver 25 Gy to the red marrow. All patients in this study received CBI.

[2] = test system: Multiple myeloma patients; test: ^166Ho-DOTMP plus melphalan with or without TBI and stem cell transplant, Phase I/II (Examples 7, 11, 13)
Procedure: Multiple myeloma patients (≦65 yrs. of age) that have responded to initial chemotherapy or have primary refractory disease or chemotherapy responsive relapse, but who are not in refractory relapse are treated. Patients are well hydrated with fluids during the day prior to the diagnostic dose. An initial diagnostic dose of 30 mCi of ^166Ho-DOTMP is administered to confirm the selective localization to the skeleton, establish the in-vivo pharmacokinetics and provide radiation dosimetry estimates for the red marrow. Assuming >15% of the ^166Ho-DOTMP accumulates in bone following the injection, the amount of ^166Ho-DOTMP required for therapy is calculated based on delivering a specified radiation absorbed dose to the marrow. Patients receive the therapeutic dose by intravenous injection over 5-10 minutes, given over 1-3 days >48 hrs after the dosometry (test) dose.
The time line for conducting the investigation is as follows: Test dose ^166Ho-DOTMP (30 mCi); ^166Ho scan image (0, 4-6, 20-24 hr.); Blood samples for dosimetry (10, 30 min, 1, 2, 6, 20-24 hr.); Urine samples (0-6, 6-12, 12-24, 24-48 hr.); and External whole body probe (0, 2, 6, 24 and 48 hr.).
Melphalan is administered 48 hr prior to the predicted PBSC infusion based upon dosimetry assessment from the test dose. PBSC infusion is administered when bone marrow dose from ^166Ho is ≦1 cGy/hr. Patients were treated at 20, 30, 40 and prospectively 50 Gy, and with 140 mg/m^2 and 200 mg/m^2 melphalan.
The MTD was defined as the level that is associated with a true toxicity rate of 20%, where toxicity for these purposes was taken to be grade 3 or greater extramedullary drug related toxicity.
All toxicities encountered during the study will be evaluated according to Bearman criteria (Bearman et al., J Clin Oncol, 6,1562, (1988)). Graft failure is considered a grade 3 toxicity. Graft failure is defined as failure to recover granulocytes to 0.5×10^9/l or platelets 20×10^9/l within 28 days of transplant or a fall to less than these levels for 3 or more consecutive days after day 28 without other apparent cause. Hematopoietic recovery (engraftment) is defined as having a sustained granulocyte count of 0.5×10^9/l for two consecutive counts post transplant and a platelet count 20×10^9/l for seven consecutive counts post transplant, without transfusion support. The first of two counts for the granulocyte count and the first of seven counts for the platelet count are considered the day of engraftment.
Patients undergo blood stem cell infusion at the time when ongoing radiation to the marrow falls to <1 rad/hr, and at least 24 hours after melphalan infusion. The total volume of stored cells is infused into a free flowing IV line primed with normal saline. Patients are premedicated with acetaminophen 650 mg PO and diphenhydramine 50 mg PO or IV. All patients receive conventional supportive care for autologous/syngeneic blood and marrow transplantation, (such as allopurinol, menstrual suppression, prophylactic antibiotics, empiric antibiotics, IV Ig, transfusions of blood products, hyperalimentation, and the like).
Patients, afflicted with multiple myeloma, were treated according to the method of the present invention. The dosage range of radiation from the complex was 460 mCi to 4.5 Ci.
Fifty-three patients received intravenous hydration only, while 30 patients received both IV hydration and continuous bladder irrigation.
In order to achieve a complete response using protocol criteria, a patient must have a complete absence of any myeloma protein in the blood/urine and marrow post treatment. The patient must have normal bone marrow with complete resolution of plasmocytomas and no increase in bone lesions. To meet international standards, this must be maintained for 6 weeks. While response rates to a conventional high dose therapy vary widely, in general for previously treated patients, there is a range of 5-25% CR rate. […]

multiple myeloma = test: Single patient: 40 Gy ^166Ho-DOTMP, melphalan 140 mg/m^2 (Example 12)
Procedure: The patient, a person with an original diagnosis of multiple myeloma, was administered a therapeutic dose of ^166Ho-DOTMP of 3875 mCi which was calculated to deliver 40 Gy to the marrow. Post ^166Ho-DOTMP, the patient received a dose of 140 mg/m^2 of melphalan (I.V.). The patients stem cells were reinfused three days after the melphalan and were followed by G-CSF for ten days.

[3] = 140 mg/m^2 melphalan w/ TBI, 20 Gy to marrow
[4] = 140 mg/m^2 melphalan w/ TBI, 30 Gy to marrow
[5] = 140 mg/m^2 melphalan w/ TBI, 40 Gy to marrow
[6] = 140 mg/m^2 melphalan w/o TBI, 20 Gy to marrow
[7] = 140 mg/m^2 melphalan w/o TBI, 30 Gy to marrow
[8] = 140 mg/m^2 melphalan w/o TBI, 40 Gy to marrow
[9] = 200 mg/m^2 melphalan w/o TBI, 20 Gy to marrow
[10] = 200 mg/m^2 melphalan w/o TBI, 30 Gy to marrow
[11] = 200 mg/m^2 melphalan w/o TBI, 40 Gy to marrow
[12] = 40 patients who received 200 mg/m^2 melphalan and were not in CR at treatment
[13] = nine patients, 750+/−10% mCi/m^2
[14] = nine patients, dose 750 mCi/m^2 (±10%)
[15] = patients who received more than 1500 mCi
[16] = patients who received ≦1500 mCi
[17] = ≦30 Gy marrow dose, 35 evaluable patients
[18] = 3875 mCi (40 Gy to marrow), melphalan 140 mg/m^2, one patient

Question: Which results are given for `O=P([O-])(O)CN1CCN(CP(=O)(O)O)CCN(CP(=O)([O-])O)CCN(CP(=O)(O)O)CC1.[166Ho]` [^166Ho-DOTMP]?
Answer: route of excretion ([1]; gamma camera counting and urine PK): no route of excretion other than the urine; localization of retained activity ([1]; gamma camera images): retained activity was localized in the skeleton; hypocalcemia or associated cardiac abnormalities ([1]; serum calcium, ECG and Holter monitoring): no clinical observations of hypocalcemia or associated cardiac abnormalities were noted; acute toxicities ([1]; therapy dose 25 Gy to red marrow): no unexpected acute toxicities were noted; time to engraftment after stem cell transplant ([1]; therapy dose calculated to deliver 25 Gy to red marrow, all patients): ≤ 15 days; Days to ANC > 500 [2, 3]: 9 days; Days to Platelets > 20,000 [2, 3]: 12 days; Number of Patients w/ Grade 3 Toxicity [2, 3]: 0/8; Days to ANC > 500 [2, 4]: 11 days; Days to Platelets > 20,000 [2, 4]: 12 days; Number of Patients w/ Grade 3 Toxicity [2, 4]: 1/8; Days to ANC > 500 [2, 5]: 9 days; Days to Platelets > 20,000 [2, 5]: 13 days; Number of Patients w/ Grade 3 Toxicity [2, 5]: 0/20; Complete Response ([2]; 140 mg/m^2 melphalan w/ TBI, all marrow doses): 7/17; Days to ANC > 500 [2, 6]: 10 days; Days to Platelets > 20,000 [2, 6]: 10 days; Number of Patients w/ Grade 3 Toxicity [2, 6]: 0/5; Days to ANC > 500 [2, 7]: 16 days; Days to Platelets > 20,000 [2, 7]: 10 days; Number of Patients w/ Grade 3 Toxicity [2, 7]: 0/4; Days to ANC > 500 [2, 8]: 12 days; Days to Platelets > 20,000 [2, 8]: 10 days; Number of Patients w/ Grade 3 Toxicity [2, 8]: 0/7; Complete Response ([2]; 140 mg/m^2 melphalan w/o TBI, all marrow doses): 3/14; patients alive ([2]; 200 mg/m^2 melphalan patients, mean follow-up time 39.4 months): Sixty-one; Days to ANC > 500 [2, 9]: 10 days; Days to Platelets > 20,000 [2, 9]: 11 days; Number of Patients w/ Grade 3 Toxicity [2, 9]: 0/4; Days to ANC > 500 [2, 10]: 12 days; Days to Platelets > 20,000 [2, 10]: 10 days; Number of Patients w/ Grade 3 Toxicity [2, 10]: 0/7; Days to ANC > 500 [2, 11]: 10.5 days; Days to Platelets > 20,000 [2, 11]: 10 days; Number of Patients w/ Grade 3 Toxicity [2, 11]: 0/14; Complete Response ([2]; 200 mg/m^2 melphalan w/o TBI, all marrow doses): 8/9; complete remission [2, 12]: 39%; partial response [2, 12]: 32%; patients who developed grade 3-4 renal toxicity ([2]; 83 patients): Twenty-five; symptoms of long-term kidney dysfunction ([2]; 83 patients, 5-12 months post-therapy): 40%; patient deaths ([2]; Phase I/II studies, to date): 21; complete response rate ([2]; across all ^166Ho-DOTMP/melphalan±TBI doses, 77 patients with response data): 35%; patients with a partial response ([2]; across all doses, 77 patients with response data): Twenty-four; Grade 1-3 hemorrhagic cystitis (HC) observed ([2]; all patients): 24 patients; patients who developed TTP/HUS ([2]; all treated at 40 Gy or higher to the marrow): Seven; cases of Grade 3-4 renal toxicities [2, 13]: no cases of Grade 3-4 renal toxicities; cases of TTP/HUS [2, 13]: no cases of TTP/HUS; 2-year survival [2, 14]: 100%; CR rate [2, 14]: 44.4%; Grade 1-3 hemorrhagic cystitis (HC), patients treated without continuous bladder irrigation (CBI) ([2]; of the 24 patients with HC): 22 patients; cases of TTP and Grade 3 or high renal toxicity ([2]; patients administered less than 1500 mCi): no reported cases; cases of TTP/HUS ([2]; patients treated at doses, 675 mCi/m^2): no cases of TTP/HUS occurred; incidence of sustained renal dysfunction ([2]; patients who received less than 1500 mCi): 23%; CR rate [2, 15]: 36%; Two-year survival [2, 15]: 67%; CR rate [2, 16]: 32%; Two-year survival [2, 16]: 77%; patients with renal dysfunction not related to TTP/HUS or progressive myeloma ([2]; serum creatinine >2 mg/dL twice or >3 mg/dL once): nine; tolerability ([2]; with melphalan at 200 mg/m^2): well tolerated; survival of 12 months ([2]; ≦30 Gy marrow dose): 100%; Complete Response [2, 17]: 30%; partial response [2, 17]: 32%; progressive disease [2, 17]: None; stable disease [2, 17]: 32%; days post stem cell transplant to neutrophil engraftment (ANC >500) (multiple myeloma; [18]): Nine; days post transplant to platelet engraftment (>20,000) (multiple myeloma; [18]): fourteen; response (multiple myeloma; twenty-eight days post transplant, one patient): complete remission
